From patent publication US6756382B2, “Amide substituted imidazoquinolines” (3M Innovative Properties Company, priority 1999, dated 2004)

How the values were obtained:
[1] = tested on: interferon (α); test: Cytokine induction in human cells: interferon secreted by PBMCs, ELISA; assay type: cell-based; conditions: PBMC, incubated 18 to 24 hours, interferon determined by ELISA, read-out: Lowest Effective Concentration (μM) Interferon
Excerpt: (§1) An in vitro human blood cell system was used to assess cytokine induction by compounds of the invention. Activity is based on the measurement of interferon and tumor necrosis factor (α) (IFN and TNF, respectively) secreted into culture media as described by Testerman et. al. In “Cytokine Induction by the Immunomodulators Imiquimod and S-27609”, Journal of Leukocyte Biology, 58, 365-372 (September, 1995).
(§2) Whole blood is collected by venipuncture into EDTA vacutainer tubes from healthy human donors. Peripheral blood mononuclear cells (PBMCs) are separated from whole blood by density gradient centrifugation using Histopaque®-1077 (Sigma Chemicals, St. Louis, Mo.). The PBMCs are suspended at 3-4×10^6 cells/mL in RPMI 1640 medium containing 10% fetal bovine serum, 2 mM L-glutamine and 1% penicillin/streptomycin solution (RPMI complete). The PBMC suspension is added to 48 well flat bottom sterile tissue culture plates (Costar, Cambridge, Mass. or Becton Dickinson Labware, Lincoln Park, N.J.) containing an equal volume of RPMI complete media containing test compound.
(§3) The compounds are solubilized in dimethyl sulfoxide (DMSO). The DMSO concentration should not exceed a final concentration of 1% for addition to the culture wells.
(§4) The solution of test compound is added at 60 μM to the first well containing RPMI complete and serial (three fold or ten fold) dilutions are made. The PBMC suspension is then added to the wells in an equal volume, bringing the test compound concentrations to the desired range. The final concentration of PBMC suspension is 1.5-2×10^6 cells/mL. The plates are covered with sterile plastic lids, mixed gently and then incubated for 18 to 24 hours at 37° C. in a 5% carbon dioxide atmosphere.
(§5) Following incubation the plates are centrifuged for 5-10 minutes at 1000 rpm (˜200×g) at 4° C. The cell culture supernatant is removed with a sterile polypropylene pipet and transferred to sterile polypropylene tubes. Samples are maintained at −30 to −70° C. until analysis. The samples are analyzed for interferon (α) by either ELISA or bioassay and for tumor necrosis factor (α) by ELISA.
Interferon (α) concentration is determined by ELISA using a Human Multi-Species kit from PBL Biomedical Laboratories, New Brunswick, N.J.
(§6) The table below lists the lowest concentration found to induce interferon and the lowest concentration found to induce tumor necrosis factor for each compound. […] Unless otherwise indicated, the interferon biosynthesis was determined by ELISA.

[2] = tested on: tumor necrosis factor (α); test: Cytokine induction in human cells: tumor necrosis factor (α) secreted by PBMCs, ELISA; assay type: cell-based; conditions: PBMC, incubated 18 to 24 hours, TNF determined by ELISA, read-out: Lowest Effective Concentration (μM) Tumor Necrosis Factor
Excerpt: as §1, §2, §3, §4, §5
Tumor necrosis factor (α) (TNF)concentration is determined using ELISA kits available from Genzyme, Cambridge, Mass.; R&D Systems, Minneapolis, Minn.; or Pharmingen, San Diego, Calif.
as §6

| Compound | minimal effective concentration [1] [µM] | minimal effective concentration [2] [µM] |
| --- | --- | --- |
| Nc1nc2ccccc2c2c1ncn2CCCCNC(=O)c1cnc2ccccc2c1 [Example 40, N^3-[4-(4-Amino-1H-imidazo[4,5-c]quinolin-1-yl)butyl]-3-quinolinecarboxamide] | 0.37 | 30 |
| Nc1nc2ccccc2c2c1ncn2CCCCNC(=O)CC(c1ccccc1)c1ccccc1 [Example 109] | > 30 | > 30 |
| CC(=O)N(CCCCn1cnc2c(N)nc3ccccc3c21)Cc1cc(Br)ccc1O [Example 122] | 3.33 | > 30 |
| Nc1nc2ccccc2c2c1ncn2CCCCNC(=O)CC1C=CCC1 (stereo not drawn) [Example 110] | 1.11 | 3.33 |
| Nc1nc2ccccc2c2c1ncn2CCCCNC(=O)c1ccc([N+](=O)[O-])cc1 [Example 87] | 3.33 | 30 |
| COc1ccccc1CCNCc1ccc(C(=O)NCCCCn2cnc3c(N)nc4ccccc4c32)cc1 [Example 106] | 3.33 | > 30 |
| COC(=O)CCC(=O)NCCCCn1cnc2c(N)nc3ccccc3c21 [Example 113] | 3.33 | > 30 |
| Nc1nc2ccccc2c2c1ncn2CCCCNC(=O)CC1CCCC1 [Example 99] | 0.37 | 3.33 |
| COc1cc(C(=O)NCCCCn2cnc3c(N)nc4ccccc4c32)cc(OC)c1OC [Example 93] | 1.11 | 30 |
| CC(=O)N(CCCCn1cnc2c(N)nc3ccccc3c21)Cc1cccc2ccccc12 [Example 138] | 1.11 | > 30 |
| COc1ccc(CN(CCCCn2cnc3c(N)nc4ccccc4c32)C(C)=O)cc1 [Example 120] | 0.37 | > 30 |
| CC(=O)N(CCCCn1cnc2c(N)nc3ccccc3c21)Cc1cc([N+](=O)[O-])ccc1Cl [Example 125] | 1.11 | > 30 |
| COc1ccc2ccccc2c1CN(CCCCn1cnc2c(N)nc3ccccc3c21)C(C)=O [Example 139] | > 30 | > 30 |
| Nc1nc2ccccc2c2c1ncn2CCCCNC(=O)c1ccco1 [Example 85] | 1.11 | 10 |
| CC(=O)N(CCCCn1cnc2c(N)nc3ccccc3c21)Cc1ccco1 [Example 134] | 0.37 | > 30 |
| CC(=O)N(CCCCn1cnc2c(N)nc3ccccc3c21)Cc1ccccc1[N+](=O)[O-] [Example 141] | 0.37 | > 30 |
| C#CCCCCCCCCC(=O)NCCCCn1cnc2c(N)nc3ccccc3c21 [Example 119] | > 30 | > 30 |
| Nc1nc2ccccc2c2c1ncn2CCCCNC(=O)c1cc(Cl)cc(Cl)c1 [Example 111] | 1.11 | > 30 |
| COC(=O)c1ccc(C(=O)NCCCCn2cnc3c(N)nc4ccccc4c32)cc1 [Example 100] | 10 | 3.33 |
| CC(=O)N(CCCCn1cnc2c(N)nc3ccccc3c21)Cc1ccc([N+](=O)[O-])cc1 [Example 140] | 1.11 | > 30 |
| COCCc1nc2c(N)nc3ccccc3c2n1CCCCNC(=O)C=C(C)C [Example 148] | 0.01 | 1 |
| Nc1nc2ccccc2c2c1ncn2CCCCNC(=O)c1cccnc1Cl [Example 97] | 0.12 | 3.33 |
| C=CCCC(=O)NCCCCn1cnc2c(N)nc3ccccc3c21 [Example 116] | 0.37 | 10 |

| Compound | minimal effective concentration [1] [µM] | minimal effective concentration [2] [µM] |
| --- | --- | --- |
| COCCc1nc2c(N)nc3c(c2n1CCCCNC(=O)Cc1ccccc1)CCCC3 [Example 174] | 0.001 | 1 |
| Nc1nc2ccccc2c2c1ncn2CCCCNC(=O)c1cccc2ccccc12 [Example 38, N^1-[4-(4-Amino-1H-imidazo[4,5-c]quinolin-1-yl)butyl]-1-naphthamide] | 0.12 | 3.33 |
| CCCCOc1ccc(CN(CCCCn2cnc3c(N)nc4ccccc4c32)C(C)=O)cc1 [Example 123] | 3.33 | > 30 |
| CN(CCc1ccccn1)Cc1ccc(C(=O)NCCCCn2cnc3c(N)nc4ccccc4c32)cc1 [Example 107] | 0.12 | 10 |
| COCCc1nc2c(N)nc3ccccc3c2n1CCCCNC(=O)c1ccc(C(C)(C)C)cc1 [Example 156] | 0.001 | 1 |
| CC(=O)N(CCCCn1cnc2c(N)nc3ccccc3c21)Cc1ccccc1Cl [Example 124] | 1.11 | 3.33 |
| CC(=O)N(CCCCn1cnc2c(N)nc3ccccc3c21)CCCc1ccccc1 [Example 136] | 1.11 | > 30 |
| C#CCCC(=O)NCCCCn1cnc2c(N)nc3ccccc3c21 [Example 115] | 1.11 | 30 |
| COC(=O)CCCC(=O)NCCCCn1cnc2c(N)nc3ccccc3c21 [Example 117] | 3.33 | > 30 |
| CCOCc1nc2c(N)nc3ccccc3c2n1CCNC(=O)CCCCC1SCC2NC(=O)NC21 (stereo not drawn) [Example 29, N^1-[2-(4-Amino-2-(ethoxymethyl)-1H-imidazo[4,5-c]quinolin-1-yl)ethyl]-5-(2-oxoperhydrothieno[3,4-d]imidazol-4-yl)pentanamide Ditrifluoroacetate] | 0.12 | > 30 |
| CC(=O)NCCCCn1cnc2c(N)nc3ccccc3c21 [Example 88] | 10 | > 30 |
| N#CCC(=O)NCCCCn1cnc2c(N)nc3ccccc3c21 [Example 112] | 10 | > 30 |
| Nc1nc2ccccc2c2c1ncn2CCCCNC(=O)c1ccc(CN2CCN(C(c3ccccc3)c3ccccc3)CC2)cc1 [Example 104] | > 30 | > 30 |
| Nc1nc2ccccc2c2c1ncn2CCCCNC(=O)C12CC3CC(CC(C3)C1)C2 [Example 90] | 3.33 | 10 |
| COCCc1nc2c(N)nc3ccccc3c2n1CCCCNC(=O)c1ccccc1C [Example 151] | 0.0001 | > 10 |
| COCCc1nc2c(N)nc3ccccc3c2n1CCCCNC(=O)c1cccc2ccccc12 [Example 154] | 0.0001 | > 10 |
| CC(=O)CCCC(=O)NCCCCn1cnc2c(N)nc3ccccc3c21 [Example 118] | 1.11 | > 30 |
| COCCc1nc2c(N)nc3ccccc3c2n1CCCCNC(=O)[C@H]1CC(=O)N(C)[C@@H]1c1cccnc1 [Example 184, (2S,3S)-N-{4-[4-amino-2-(2-methoxyethyl)-1H-imidazo[4,5-c]quinolin-1-yl]butyl}-1-methyl-5-oxo-2-pyridin-3-ylpyrrolidine-3-carboxamide] | 0.12 | 1.11 |
| Nc1nc2ccccc2c2c1ncn2CCCCNC(=O)Cc1cccs1 [Example 108, N^1-(4-(4-Amino-1H-imidazo[4,5-c]quinolin-1-yl)butyl)-2-(2-thienyl)acetamide] | 0.12 | 10 |
| CC(=O)N(CCCCn1cnc2c(N)nc3ccccc3c21)Cc1ccncc1 [Example 143] | 0.12 | > 30 |
| CC(=O)N(CCCCn1cnc2c(N)nc3ccccc3c21)Cc1ccoc1 [Example 135] | 0.12 | > 30 |
| COc1ccc(CC(=O)NCCCCn2cnc3c(N)nc4ccccc4c32)cc1 [Example 98] | 1.11 | 10 |
